Measured values from paper PMC7688903 (Frontiers in Microbiology, 2020).
In brackets after ≈: the same amount, converted by molar mass. Marks after values point to notes of the source that are not given here. Where a SMILES comes first, the peptide text is derived from it. [ ]: non-standard residue; d: D form. hArg = N=C(N)NCCCC[C@H](N)C(=O)O; 2Thi = N[C@@H](Cc1cccs1)C(=O)O; Dab = NCC[C@H](N)C(=O)O; Dap = NC[C@H](N)C(=O)O

Key:
P. aeruginosa ATCC 27853 = assay type: cell-based, Pseudomonas aeruginosa; details: ATCC 27853, 20 h
Experimental: (§1) The antimicrobial activities of the peptides were tested against E. coli ATCC 25922, P. aeruginosa ATCC 27853, carbapenem-resistant P. aeruginosa SIPI-012, A. baumannii ATCC 19606, carbapenem-resistant A. baumannii SIPI-025, S. aureus ATCC 25923, and C. albicans ATCC 10231. The minimum inhibitory concentration (MIC) values were determined using the microdilution method according to Clinical and Laboratory Standards Institute guidelines ([CLSI, 2008], [2012]). The peptides were dissolved in 10 mM PB to a concentration of 1280 μg/mL as stock solutions.
(§2) For inoculum preparation of bacteria, morphologically similar colonies selected from fresh MH agar plates were transferred using a loop into approximately 10 mL of MH broth in a capped test tube and vortexed. The suspension was adjusted with MH broth to achieve a turbidity equivalent to a 0.5 McFarland standard (BaSO4 solution prepared spectrophotometrically). A working suspension was prepared by making a 1:15 dilution followed by a 1:20 dilution of the stock suspension with MH broth medium to obtain approximately 5 × 10^5 CFU/mL. For inoculum preparation of yeast, five fresh colonies of approximately 1 mm diameter were picked from 24-hour-old cultures of C. albicans and suspended in 5 mL of sterile 0.85% saline. The resulting suspension was vortexed and the cell density was adjusted by adding sufficient sterile saline to achieve a turbidity equivalent to a 0.5 McFarland standard. A working suspension was prepared by making a 1:100 dilution followed by a 1:20 dilution of the stock suspension with RPMI 1640 broth medium to obtain 0.5 × 10^3 to 2.5 × 10^3 CFU/mL. Intermediate twofold dilutions of the peptides were prepared in MH broth and RPMI 1640 medium, and 90 μL aliquots were added to each well in addition to 10 μL of the inoculum prepared above.
(§3) Each plate included a growth control well and a sterility (uninoculated) control well. Colistin, vancomycin hydrochloride, and amphotericin B were used as positive controls for gram-negative bacteria, gram-positive bacteria, and fungi, respectively. The bacterial and fungal plates were incubated at 37°C for 20 h and 35°C for 48 h, respectively, both under ambient atmosphere. The inhibition of microbial growth was assessed visually. The MICs were determined from independent triplicate assays.

[1] = test system: carbapenem-resistant P. aeruginosa (CRPA) SIPI-012; assay type: cell-based, Pseudomonas aeruginosa; details: carbapenem-resistant (CRPA) SIPI-012, 20 h
Experimental: as §1, §2, §3

[2] = test system: carbapenem-resistant A. baumannii (CRAB) SIPI-025; assay type: cell-based, Acinetobacter baumannii; details: carbapenem-resistant (CRAB) SIPI-025, 20 h
Experimental: as §1, §2, §3

A. baumannii ATCC 19606 = assay type: cell-based, Acinetobacter baumannii; details: ATCC 19606, 20 h
Experimental: as §1, §2, §3

RAW 264.7 cells = assay: Cell viability assay (MTT); assay type: cell-based, mouse; details: 1–128 μM peptide in DMEM with 4% FBS, 42 h, 595 nm, triplicate
Experimental: The peptides were dissolved in ddH2O to a concentration of 256 μM. RAW 264.7 cells were cultured in 100 μL of DMEM containing 10% FBS and seeded at a density of 1 × 10^4 cells in a 96-well culture plate. The plate was incubated at 37°C under 5% CO2 atmosphere overnight. After attaining 80% confluency, the cells were treated with various concentrations of the peptides (1–128 μM) dissolved in DMEM containing 4% FBS for 42 h. Cytotoxicity was determined using the MTT tetrazolium reduction assay and quantified spectrophotometrically at 595 nm using a SpectraMax i3x microplate reader. The cell viability was calculated with respect to control samples treated only with DMEM containing 4% FBS ([Khara et al., 2016]). Each test was done in triplicate and the concentration required for 50% inhibition of viability (IC50) was determined.

human erythrocytes = assay: Hemolytic activity assay; assay type: cell-based; details: human RBC in PB, 37°C, 1 h, OD420, total lysis control 0.1% SDS, three technical replicates
Experimental: Whole blood was obtained from a healthy volunteer. The red blood cells (RBC) were then centrifuged (800 × g, 10 min), washed twice with PB, resuspended in 1 mL of PB, and incubated with various concentrations of the peptides (32–128 μM) at 37°C for 1 h. As a positive control, total lysis of the RBC was accomplished by incubation with 0.1% SDS. For each condition, three technical replicates were performed. After incubation, the RBC were centrifuged at 800 × g for 10 min and the amount of hemoglobin released into the supernatant was determined by measuring the optical density OD420 using a SpectraMax i3x microplate reader (Molecular Devices) ([Zaet et al., 2017]).

human plasma proteases = assay: in vitro
Experimental: The peptides were mixed with plasma from healthy volunteers to a final concentration of 0.1 mg/mL and incubated at 37°C. Aliquots (20 or 40 μL) were removed after 0, 2, 4, 6, 8, 12, 24, and 36 h, mixed with 0.05% TFA to a final concentration of 0.01 mg/mL, and incubated on ice for 10 min. After centrifugation (12,000 × g, 5 min), the supernatant was stored at −20°C. The samples were analyzed as described in section “Hydrophobicity” and quantified as described in section “Stability Toward Tryptic Degradation.” All stability tests were performed at least in triplicate. The identities of the metabolites after 12 h of degradation by plasma proteases were determined by LC-MS on a Waters Acquity UPLC-QDa system.

S. aureus ATCC 25923 = assay: microbe, parasite or virus in culture; assay type: cell-based, Staphylococcus aureus; details: ATCC 25923, 20 h
Method in brief: (§4)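 Inocula were set to 0.5 McFarland and diluted to ~5 × 10^5 CFU/mL (bacteria, MH broth) or 0.5 × 10^3 to 2.5 × 10^3 CFU/mL (yeast, RPMI 1640). Peptide twofold dilutions were added, plates incubated 20 h at 37°C or 48 h at 35°C, then scored by eye.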

[3] = test system: proteases secreted by S. aureus ATCC 25923; assay: in vitro; details: S. aureus ATCC 25923 culture supernatant, pH 8
Experimental: (§5) The stabilities of the peptides toward proteases secreted by E. coli ATCC 25922, P. aeruginosa ATCC 27853, A. baumannii ATCC 19606, S. aureus ATCC 25923, and C. albicans ATCC 10231 were also examined. Microbial supernatants were prepared by resuspending single colonies of each strain in 20 mL of an appropriate culture medium followed by incubation at 37°C overnight. MH broth and 2% tryptone/2% dextrose were used as the culture media for bacteria and yeast, respectively. Each culture was then centrifuged at 12,000 × g for 10 min and the supernatant was adjusted to pH 8.0 with HCl or NaOH and then filtered through a 0.22 μm sterile filter membrane ([Zaet et al., 2017]). The peptides were then dissolved in the filtered supernatants to a concentration of 0.5 mg/mL, and the peptide-free supernatants were used as negative controls. The samples were incubated at 37°C for 24 h in a water bath and then analyzed by RP-HPLC as described above.

[4] = test system: proteases secreted by A. baumannii ATCC 19606; assay: in vitro; details: A. baumannii ATCC 19606 culture supernatant, pH 8
Experimental: as §5

C. albicans ATCC 10231 = assay: microbe, parasite or virus in culture; assay type: cell-based, Candida albicans; details: ATCC 10231, 48 h
Method in brief: as §4

E. coli ATCC 25922 = assay type: cell-based, Escherichia coli; details: ATCC 25922, 20 h
Experimental: as §1, §2, §3

[5] = test system: proteases secreted by P. aeruginosa ATCC 27853; assay: in vitro; details: P. aeruginosa ATCC 27853 culture supernatant, pH 8
Experimental: as §5

[6] = test system: proteases secreted by C. albicans ATCC 10231; assay: in vitro; details: C. albicans ATCC 10231 culture supernatant, pH 8
Experimental: as §5

Structure (SMILES): CC(C)C[C@H](NC(=O)[C@H](Cc1ccc(O)cc1)NC(=O)[C@H](CCCCN)NC(=O)[C@H](CC(C)C)NC(=O)[C@H](CC(C)C)NC(=O)[C@@H](CCCCN)NC(=O)[C@@H](CCCCN)NC(=O)[C@H](Cc1ccccc1)NC(=O)[C@H](CC(C)C)NC(=O)[C@@H](CCCNC(=N)N)NC(=O)[C@H](N)CCCCN)C(=O)N[C@@H](CCCNC(=N)N)C(=O)N[C@H](CCCCN)C(=O)N[C@@H](Cc1ccccc1)C(N)=O [DP05] (H-[dK][dR]LF[dK][dK]LLKYLR[dK]F-NH2)
- MIC (P. aeruginosa ATCC 27853): 1 µg/mL (≈ 0.532 µM)
- MIC [1]: 8 µg/mL (≈ 4.25 µM)
- MIC [2]: 2 µg/mL (≈ 1.06 µM)
- MIC (A. baumannii ATCC 19606): 1 µg/mL (≈ 0.532 µM)
- IC50 (RAW 264.7 cells): 32.7 ± 3.44 µM
- Hemolysis rate (%) (human erythrocytes; 64 μM): 30.09 ± 1.56%
- Hemolysis rate (%) (human erythrocytes; 128 μM): 45.07 ± 2.93%
- metabolised at 2 h, 0.1 mg/mL (human plasma proteases): > 40%
- metabolised at 4 h, 0.1 mg/mL (human plasma proteases): > 50%
- MIC (S. aureus ATCC 25923): 1 µg/mL (≈ 0.532 µM)
- remaining at 24 h, 0.5 mg/mL ([3]; Staphylococcus aureus): 66.7 ± 5.9%
- remaining at 24 h, 0.5 mg/mL ([4]; Acinetobacter baumannii): 31.7 ± 9%
- MIC (C. albicans ATCC 10231): 2 µg/mL (≈ 1.06 µM)
- MIC (E. coli ATCC 25922): 2 µg/mL (≈ 1.06 µM)

Structure (SMILES): CC(C)C[C@H](NC(=O)[C@H](Cc1ccc(O)cc1)NC(=O)[C@H](CCN)NC(=O)[C@H](CC(C)C)NC(=O)[C@H](CC(C)C)NC(=O)[C@H](CCN)NC(=O)[C@H](CCN)NC(=O)[C@H](Cc1ccccc1)NC(=O)[C@H](CC(C)C)NC(=O)[C@H](CCCCNC(=N)N)NC(=O)[C@@H](N)CCN)C(=O)N[C@@H](CCCNC(=N)N)C(=O)N[C@@H](CCN)C(=O)N[C@@H](Cc1ccccc1)C(N)=O [UP12] (H-[Dab][hArg]LF[Dab][Dab]LL[Dab]YLR[Dab]F-NH2)
- MIC (P. aeruginosa ATCC 27853): 2 µg/mL (≈ 1.14 µM)
- MIC [1]: 4 µg/mL (≈ 2.28 µM)
- MIC [2]: 4 µg/mL (≈ 2.28 µM)
- MIC (A. baumannii ATCC 19606): 2 µg/mL (≈ 1.14 µM)
- IC50 (RAW 264.7 cells): 21.2 ± 2.42 µM
- Hemolysis rate (%) (human erythrocytes; 64 μM): 45.13 ± 1.95 %
- Hemolysis rate (%) (human erythrocytes; 128 μM): ∼100.00* %
- MIC (S. aureus ATCC 25923): 1 µg/mL (≈ 0.57 µM)
- remaining at 24 h, 0.5 mg/mL [5]: 20.6 ± 4.3%
- remaining at 24 h, 0.5 mg/mL [6]: 37.7 ± 5.24%
- remaining at 24 h, 0.5 mg/mL [3]: 69.5 ± 5.97%
- MIC (C. albicans ATCC 10231): 4 µg/mL (≈ 2.28 µM)
- MIC (E. coli ATCC 25922): 2 µg/mL (≈ 1.14 µM)

Structure (SMILES): CC(C)C[C@H](NC(=O)[C@H](Cc1ccc(O)cc1)NC(=O)[C@H](CCN)NC(=O)[C@H](CC(C)C)NC(=O)[C@H](CC(C)C)NC(=O)[C@H](CN)NC(=O)[C@H](CN)NC(=O)[C@H](Cc1ccccc1)NC(=O)[C@H](CC(C)C)NC(=O)[C@H](CCCCNC(=N)N)NC(=O)[C@@H](N)CN)C(=O)N[C@@H](CCCCNC(=N)N)C(=O)N[C@@H](CCN)C(=O)N[C@@H](Cc1ccccc1)C(N)=O [UP14] (H-[Dap][hArg]LF[Dap][Dap]LL[Dab]YL[hArg][Dab]F-NH2)
- MIC (P. aeruginosa ATCC 27853): 2 µg/mL (≈ 1.16 µM)
- MIC [1]: 8 µg/mL (≈ 4.63 µM)
- MIC [2]: 4 µg/mL (≈ 2.32 µM)
- MIC (A. baumannii ATCC 19606): 4 µg/mL (≈ 2.32 µM)
- IC50 (RAW 264.7 cells): 14 ± 2.67 µM
- Hemolysis rate (%) (human erythrocytes; 64 μM): 66.51 ± 3.14 %
- Hemolysis rate (%) (human erythrocytes; 128 μM): 74.68 ± 1.34 %
- MIC (S. aureus ATCC 25923): 0.5 µg/mL (≈ 0.29 µM)
- remaining at 24 h, 0.5 mg/mL [5]: 27.6 ± 6.76%
- remaining at 24 h, 0.5 mg/mL [3]: 57.3 ± 6.54%
- remaining at 24 h, 0.5 mg/mL [4]: 12.9 ± 1.48%
- MIC (C. albicans ATCC 10231): 4 µg/mL (≈ 2.32 µM)
- MIC (E. coli ATCC 25922): 2 µg/mL (≈ 1.16 µM)

Structure (SMILES): CC(C)C[C@H](NC(=O)[C@H](Cc1ccc(O)cc1)NC(=O)[C@H](CCN)NC(=O)[C@H](CC(C)C)NC(=O)[C@H](CC(C)C)NC(=O)[C@H](CCN)NC(=O)[C@H](CN)NC(=O)[C@H](Cc1cccs1)NC(=O)[C@H](CC(C)C)NC(=O)[C@H](CCCNC(=N)N)NC(=O)[C@@H](N)CCN)C(=O)N[C@@H](CCCCNC(=N)N)C(=O)N[C@@H](CCN)C(=O)N[C@@H](Cc1ccccc1)C(N)=O [UP15] (H-[Dab]RL[2Thi][Dap][Dab]LL[Dab]YL[hArg][Dab]F-NH2)
- MIC (P. aeruginosa ATCC 27853): 1 µg/mL (≈ 0.573 µM)
- MIC [1]: 4 µg/mL (≈ 2.29 µM)
- MIC [2]: 2 µg/mL (≈ 1.15 µM)
- MIC (A. baumannii ATCC 19606): 2 µg/mL (≈ 1.15 µM)
- IC50 (RAW 264.7 cells): 28.7 ± 3.52 µM
- Hemolysis rate (%) (human erythrocytes; 64 μM): 54.16 ± 2.02 %
- Hemolysis rate (%) (human erythrocytes; 128 μM): 97.86 ± 3.07 %
- MIC (S. aureus ATCC 25923): 1 µg/mL (≈ 0.573 µM)
- remaining at 24 h, 0.5 mg/mL ([6]; Candida albicans): 21.1 ± 5.28%
- remaining at 24 h, 0.5 mg/mL ([3]; Staphylococcus aureus): 54.6 ± 4.19%
- MIC (C. albicans ATCC 10231): 4 µg/mL (≈ 2.29 µM)
- MIC (E. coli ATCC 25922): 2 µg/mL (≈ 1.15 µM)
